# Marks after values point to notes of the source that are not given here. Numbered stars: 1 amine (or outer) side, 2 acyl side, 3 side chain; on linkers, the order of the positions; unused ones are H or OH. Square brackets hold non-standard residues; d marks the D form. Side chains are listed from the residue outwards. Peptide text beside a SMILES is read from it. * marks the point of attachment. C18 diacid = O=C(O)CCCCCCCCCCCCCCCCC(=O)*; γGlu = O=C(O)[C@H](CCC(=O)[*:2])N[*:1]; AEEA = NCCOCCOCC(=O)O; Aib = CC(C)(N)C(=O)O
# Key:
# GC receptor = biological target: T1, GC receptor (Homo sapiens, UniProt P47871); test: GC receptor mediated cAMP production in vitro (HEK293 cells transfected with GC receptor); type: cell-based; settings: 20 min at 37° C., read-out: GCGR (nM EC50)
# T1 construct: expressed in transfected cells; host or cells: HEK293 cells
# T1 sequence (P47871 26-477): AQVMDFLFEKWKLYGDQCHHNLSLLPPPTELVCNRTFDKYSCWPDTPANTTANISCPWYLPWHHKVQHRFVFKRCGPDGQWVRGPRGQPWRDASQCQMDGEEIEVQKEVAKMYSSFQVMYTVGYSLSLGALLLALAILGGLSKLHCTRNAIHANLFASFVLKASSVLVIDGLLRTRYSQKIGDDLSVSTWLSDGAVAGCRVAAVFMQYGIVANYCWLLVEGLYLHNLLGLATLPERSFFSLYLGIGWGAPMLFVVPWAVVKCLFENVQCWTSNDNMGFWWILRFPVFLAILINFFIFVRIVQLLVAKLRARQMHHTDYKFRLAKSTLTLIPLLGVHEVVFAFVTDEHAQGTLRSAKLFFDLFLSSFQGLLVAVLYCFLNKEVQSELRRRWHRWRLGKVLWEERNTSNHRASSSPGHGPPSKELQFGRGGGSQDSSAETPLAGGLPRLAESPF
# Source text: The medium was removed, the cells were lysed, and cAMP values were detected referring to the detection method described for the assay kit.
# [1] = Effect on body weight of DIO mice after 14 days' administration; type: in vivo, C57BL/6J mice; settings: for body weight reduction (in words): 14 days, conclusions on Tables 3 and 5
# Source text: C57BL/6J mice (n=35), model group (n=30) were fed with H10060 high-fat diet to induce obesity (DIO), blank control group (n=5) were fed with standard diet, both for 34 weeks. One day before the first administration, the model group was randomly divided into groups according to their body weight (average body weight range 45.0-52.0 g), with 5 mice in each group, which respectively were model control group, positive control group (semaglutide), and test sample group (1 #-4 # are compound 1, compound 4, compound 6 and compound 22, respectively). The blank control group and model control group were given saline subcutaneously every day, while the positive control group and test sample group were administrated by subcutaneous injection every day for 14 days. The body weight of the animals was weighed and recorded every day, and the change rate of body weight (%) was calculated by comparing the body weight at the last administration day with the initial body weight. (initial body weight−last body weight)/initial body weight=body weight change rate (%). Calculation formula: […]
# Calculated positive values indicate a decrease and negative values indicate an increase.
# (§1) Methods are the same as that in Example 3, the test results of effects on body weight are shown in Table 5, and the effects on blood glucose are shown in Table 6. In the table, 5 #-9 # are compound 27, compound 35, compound 54, compound 57, and compound 66, respectively.
# [2] = Glucose tolerance test in glucose-loaded DIO mice; type: in vivo; set-up: AUC reduction rate (%), Table 6: concentration or dose not given beside the values; settings: for glucose tolerance / blood glucose lowering (in words): conclusions on Tables 4 and 6
# Procedure: DIO mice fasted for 16 h, and 1 h after administration by subcutaneous injection, glucose solution (1 g/kg) was given intraperitoneally for glucose tolerance test. Blood glucose values were measured at 0.5, 1 and 1.5 h after glucose administration. The area under the blood glucose concentration curve (AUC) was calculated and compared with that of the model control group, and the blood glucose inhibition rate (%) was calculated.
# as §1
# [3] = Short-term administration: food intake and body weight in DIO mice; type: in vivo; settings: 30 nmol/kg once every 24 h, twice, − decrease; for Rate of change in food intake (%): at 48 hours vs day before administration; for Body weight change: at 48 hours
# Procedure: Method: diet-induced obese mice (DIO) with an average body weight of 52.5 g were divided into model control and test groups, 5 mice in each group. The test samples were dissolved in 10 mM PBS of pH7.4, injected once every 24 h at a dose of 30 nmol/kg, and administered twice. The model group was injected with solvent. Changes in food intake and body weight at 48 hours were measured, and the change rates were calculated compared to the day before administration.
# physchem = type: physicochemical
# [4] = Accelerated chemical stability in injection solvent system (HPLC-UV); type: physicochemical; settings: 14 days, phosphate buffer pH 7.3 with Tween 80 and phenol, main peak area vs day 0
# Procedure: The chemical stability of the compounds of the present invention in injection solution systems was evaluated by an accelerated stability test. Methods: an appropriate amount of compound of Example 1 was weighed, and dissolved in 10 mM pH8.5 sodium hydrogen phosphate buffer. The final pH value of the solution was adjusted to 7.3 with 0.1 N hydrochloric acid, and proper amounts of Tween 80 and phenol were added. The mixture was placed at 10° C. and 37° C. for 14 days, and detected by HPLC-UV. The main peak area was obtained by peak area normalization method, and the changes compared with day 0 were investigated. The HPLC detection method was the same as that in Example 6, and the mobile phase gradient was appropriately adjusted according to the situation of chromatographic peak separation.
# [5] = pH 7.5, Solubility, pH 7.5, 10 mM phosphate buffer
# [6] = pH 7.5, Solubility, pH 7.5, 20 mM phosphate buffer
# 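Throughout, for Solubility: compound added at 2 mg per mL of phosphate buffer, with the dissolved amount determined in the supernatant.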
SMILES,EC50 (GC receptor) [nM],body weight reduction (in words) ([1]; DIO mice),glucose tolerance / blood glucose lowering (in words) ([2]; DIO mice),Rate of change in food intake (%) [3] [%],Body weight change [3] [g],solubility (physchem; [5]) [µg/mL],solubility (physchem; [6]) [µg/mL],Change in purity % (10° C.) [4] [%],Change in purity % (37° C.) [4] [%],"solubility (physchem; pH 8, Solubility, pH 8.0, 10 mM phosphate buffer) [µg/mL]","solubility (physchem; pH 8, Solubility, pH 8.0, 20 mM phosphate buffer) [µg/mL]","body weight change rate, Table 3 ([1]; DIO mice, subcutaneous injection every day for 14 days, (initial−last)/initial, positive values indicate a decrease) [%]","AUC of blood glucose, Table 4 ([2]; DIO mice fasted 16 h, glucose 1 g/kg i.p. 1 h after s.c. administration, 0.5, 1, 1.5 h) [mmol·h/L]","AUC reduction rate (%), Table 4 ([2]; blood glucose inhibition rate compared with model control group, DIO mice, glucose 1 g/kg i.p.)","body weight change, Table 5 ([1]; Example 4, DIO mice, 14 days' administration, methods as in Example 3, positive values indicate a decrease, listed as 7#)","AUC of blood glucose, Table 6 ([2]; Example 4, DIO mice under glucose load, methods as in Example 3, listed as 7#) [mmol·h/L]","AUC reduction rate (%), Table 6 ([2]; Example 4, compared with model control group, DIO mice under glucose load, listed as 7#)"
CC[C@H](C)[C@H](NC(=O)[C@H](Cc1ccccc1)NC(=O)[C@H](CCC(=O)O)NC(=O)[C@H](CCCCN)NC(=O)[C@H](C)NC(=O)[C@H](C)NC(=O)[C@H](CCCNC(=N)N)NC(=O)[C@H](CCC(=O)O)NC(=O)[C@H](CCC(=O)O)NC(=O)[C@H](CC(C)C)NC(=O)[C@H](Cc1ccc(O)cc1)NC(=O)[C@H](CCCCN)NC(=O)[C@H](CO)NC(=O)[C@H](CCCCNC(=O)COCCOCCNC(=O)COCCOCCNC(=O)CC[C@H](NC(=O)CCCCCCCCCCCCCCCCC(=O)O)C(=O)O)NC(=O)[C@H](CC(=O)O)NC(=O)[C@H](CO)NC(=O)[C@@H](NC(=O)[C@H](Cc1ccccc1)NC(=O)[C@@H](NC(=O)CNC(=O)[C@H](CCC(N)=O)NC(=O)C(C)(C)NC(=O)[C@@H](N)Cc1c[nH]cn1)[C@@H](C)O)[C@@H](C)O)C(=O)N[C@@H](C)C(=O)N[C@@H](Cc1c[nH]c2ccccc12)C(=O)N[C@@H](CC(C)C)C(=O)N[C@@H](CCC(=O)O)C(=O)N[C@@H](C)C(=O)NCC(=O)NCC(=O)N1CCC[C@H]1C(=O)N[C@@H](CO)C(=O)N[C@@H](CO)C(=O)NCC(N)=O [Compound 27] (H-H[Aib]QGTFTSDK([AEEA-AEEA-γGlu-C18 diacid])SKYLEERAAKEFIAWLEAGGPSSG-NH2; N-terminus assumed),0.014,significantly reduced body weight,significantly improved glucose tolerance,−55,-1.9,> 2000,> 2000,−1.8,−4.6,,,,,,,,
"CCCCCCCCCCCCCCCC(=O)N[C@@H](CCC(=O)N[C@@H](CCC(=O)NCCCC[C@H](NC(=O)[C@H](C)NC(=O)[C@H](CCCNC(=N)N)NC(=O)[C@H](CCCCN)NC(=O)[C@H](CCC(=O)O)NC(=O)[C@H](CC(=O)O)NC(=O)[C@H](CC(C)C)NC(=O)[C@H](Cc1ccc(O)cc1)NC(=O)[C@H](CCCCN)NC(=O)[C@H](CO)NC(=O)[C@H](Cc1ccc(O)cc1)NC(=O)[C@H](CC(=O)O)NC(=O)[C@H](CO)NC(=O)[C@@H](NC(=O)[C@H](Cc1ccccc1)NC(=O)[C@@H](NC(=O)CNC(=O)[C@H](CCC(N)=O)NC(=O)C(C)(C)NC(=O)[C@@H](N)Cc1c[nH]cn1)[C@@H](C)O)[C@@H](C)O)C(=O)N[C@@H](CCC(=O)O)C(=O)N[C@@H](Cc1ccccc1)C(=O)N[C@H](C(=O)N[C@@H](C)C(=O)N[C@@H](Cc1c[nH]c2ccccc12)C(=O)N[C@@H](CC(C)C)C(=O)N[C@@H](CCC(=O)O)C(=O)N[C@@H](C)C(=O)NCC(=O)NCC(=O)N1CCC[C@H]1C(=O)N[C@@H](CO)C(=O)N[C@@H](CO)C(=O)NCC(N)=O)[C@@H](C)CC)C(=O)O)C(=O)O [Compound 57] (HELM PEPTIDE1{H.[Aib].Q.G.T.F.T.S.D.Y.S.K.Y.L.D.E.K.R.A.K.E.F.I.A.W.L.E.A.G.G.P.S.S.G.[am]}|PEPTIDE2{[CCCCCCCCCCCCCCCC(=O)[*:2]].[gGlu].[gGlu]}$PEPTIDE1,PEPTIDE2,20:R3-3:R2$$$V2.0; N-terminus assumed)",0.081,significantly reduced body weight,significantly improved glucose tolerance,−71,-2.6,1460,1310,−1.1,−4.0,1840,1530,,,,,,
"CCCCCCCCCCCCCCCC(=O)N[C@@H](CCC(=O)N[C@@H](CCC(=O)NCCCC[C@H](NC(=O)[C@H](CC(=O)O)NC(=O)[C@H](CO)NC(=O)[C@@H](NC(=O)[C@H](Cc1ccccc1)NC(=O)[C@@H](NC(=O)CNC(=O)[C@H](CCC(N)=O)NC(=O)C(C)(C)NC(=O)[C@@H](N)Cc1c[nH]cn1)[C@@H](C)O)[C@@H](C)O)C(=O)N[C@@H](CO)C(=O)N[C@@H](CCCCN)C(=O)N[C@@H](Cc1ccc(O)cc1)C(=O)N[C@@H](CC(C)C)C(=O)N[C@@H](CCC(=O)O)C(=O)N[C@@H](CCC(=O)O)C(=O)N[C@@H](CCCNC(=N)N)C(=O)N[C@@H](C)C(=O)N[C@@H](C)C(=O)N[C@@H](CCCCN)C(=O)N[C@@H](CCC(=O)O)C(=O)N[C@@H](Cc1ccccc1)C(=O)N[C@H](C(=O)N[C@@H](C)C(=O)N[C@@H](Cc1c[nH]c2ccccc12)C(=O)N[C@@H](CC(C)C)C(=O)N[C@@H](CCC(=O)O)C(=O)N[C@@H](C)C(=O)NCC(=O)NCC(=O)N1CCC[C@H]1C(=O)N[C@@H](CO)C(=O)N[C@@H](CO)C(=O)NCC(N)=O)[C@@H](C)CC)C(=O)O)C(=O)O [Compound 1] (HELM PEPTIDE1{H.[Aib].Q.G.T.F.T.S.D.K.S.K.Y.L.E.E.R.A.A.K.E.F.I.A.W.L.E.A.G.G.P.S.S.G.[am]}|PEPTIDE2{[CCCCCCCCCCCCCCCC(=O)[*:2]].[gGlu].[gGlu]}$PEPTIDE1,PEPTIDE2,10:R3-3:R2$$$V2.0; N-terminus assumed)",0.0574,,,−58,-2.8,> 2000,> 2000,−1.4,−5.2,,,28.3,7.24 ± 1.33,65.8** %,,,
"CCCCCCCCCCCCCCCC(=O)N[C@@H](CCC(=O)N[C@@H](CCC(=O)NCCCC[C@H](NC(=O)[C@H](CC(=O)O)NC(=O)[C@H](CO)NC(=O)[C@@H](NC(=O)[C@H](Cc1ccccc1)NC(=O)[C@@H](NC(=O)CNC(=O)[C@H](CCC(N)=O)NC(=O)C(C)(C)NC(=O)[C@@H](N)Cc1c[nH]cn1)[C@@H](C)O)[C@@H](C)O)C(=O)N[C@@H](CO)C(=O)N[C@@H](CCCCN)C(=O)N[C@@H](Cc1ccc(O)cc1)C(=O)N[C@@H](CC(C)C)C(=O)N[C@@H](CCC(=O)O)C(=O)N[C@@H](CCC(=O)O)C(=O)N[C@@H](CCCNC(=N)N)C(=O)N[C@@H](C)C(=O)N[C@@H](C)C(=O)N[C@@H](CCCCN)C(=O)N[C@@H](CCC(=O)O)C(=O)N[C@@H](Cc1ccccc1)C(=O)N[C@H](C(=O)N[C@@H](CCC(=O)O)C(=O)N[C@@H](Cc1c[nH]c2ccccc12)C(=O)N[C@@H](CC(C)C)C(=O)N[C@@H](CCC(=O)O)C(=O)NCC(=O)NCC(=O)N1CCC[C@H]1C(=O)N[C@@H](CO)C(=O)N[C@@H](CO)C(=O)NCC(N)=O)C(C)C)C(=O)O)C(=O)O [Compound 7] (HELM PEPTIDE1{H.[Aib].Q.G.T.F.T.S.D.K.S.K.Y.L.E.E.R.A.A.K.E.F.V.E.W.L.E.G.G.P.S.S.G.[am]}|PEPTIDE2{[CCCCCCCCCCCCCCCC(=O)[*:2]].[gGlu].[gGlu]}$PEPTIDE1,PEPTIDE2,10:R3-3:R2$$$V2.0; N-terminus assumed)",0.026,,,,,,,,,,,,,,21.45,7.26 ± 1.77,63.4** %
